Data as given in patent publication EP0908457B1, “3-(1,2-benzisothiazol- and isoxazol-5-Y1)-2,4(1H,3H)-pyrimidinedione or thione and 3-(1,2-benzisothiazol- and isoxazol-5-y1)-4(3H)-pyrimidinone or thione herbicidal agents” (BASF AKTIENGESELLSCHAFT, priority 1997, dated 1999).

Tests used:
[1] = system: Echinochloa oryzoides (Ard.) Fritsch.; experiment: Preemergence weed control under flooded paddy conditions, ECHORC (Watergrass (Calif.)); type: in vivo; conditions: preemergence, flooded paddy, rated three to four weeks after treatment; on herbicidal effect rating, ECHORC: meaning of each grade not given here
[2] = system: Cyperus iria; experiment: Preemergence weed control under flooded paddy conditions, CYPIR (Rice Flatsedge); type: in vivo; conditions: preemergence, flooded paddy, rated three to four weeks after treatment; on herbicidal effect rating, CYPIR: meaning of each grade not given here
[3] = system: Cyperus serotinus, Rottb.; experiment: Preemergence weed control under flooded paddy conditions, CYPSE (Flatsedge); type: in vivo; conditions: preemergence, rated three to four weeks after treatment; on herbicidal effect rating, CYPSE: meaning of each grade not given here
[4] = system: Monochoria vaginalis, Presl.; experiment: Preemergence weed control under flooded paddy conditions, MOOVA (Monochoria); type: in vivo; conditions: preemergence, flooded paddy, rated three to four weeks after treatment; on herbicidal effect rating, MOOVA: meaning of each grade not given here
[5] = system: Sagittaria pygmaea, L.; experiment: Preemergence weed control under flooded paddy conditions, SAGPY (Arrowhead (Pygmaea)); type: in vivo; conditions: preemergence, flooded paddy, rated three to four weeks after treatment; on herbicidal effect rating, SAGPY: meaning of each grade not given here
[6] = system: Oryza sativa, (L.) Tebonnet; experiment: Rice tolerance to post-transplant applications under flooded paddy conditions (Example 187), ORYSAT (Rice, Tebonnet); conditions: rated three to four weeks after treatment

CN(C)S(=O)(=O)NC(=O)c1nsc2ccc(-n3c(=O)cc(C(F)(F)F)n(C)c3=O)cc12 [Example 507, 1,2-Benzisothiazole-3-carboxamide, 5-[3,6-dihydro-3-methyl-2,6-dioxo-4-(trifluoromethyl)-1(2H)-pyrimidinyl]-N-(dimethylsulfamoyl)-]
ECHORC herbicidal rating ([1]; 0.0320 kg/ha): 2.0 | ECHORC herbicidal rating ([1]; 0.0620 kg/ha): 2.0 | ECHORC herbicidal rating ([1]; 0.1250 kg/ha): 4.0 | ECHORC herbicidal rating ([1]; 0.2500 kg/ha): 7.0 | CYPIR herbicidal rating ([2]; 0.0320 kg/ha): 5.0 | CYPIR herbicidal rating ([2]; 0.0620 kg/ha): 6.0 | CYPIR herbicidal rating ([2]; 0.1250 kg/ha): 9.0 | CYPIR herbicidal rating ([2]; 0.2500 kg/ha): 9.0 | CYPSE herbicidal rating ([3]; 0.0320 kg/ha): 0.0 | MOOVA herbicidal rating ([4]; 0.0320 kg/ha): 9.0 | MOOVA herbicidal rating ([4]; 0.0620 kg/ha): 9.0 | MOOVA herbicidal rating ([4]; 0.1250 kg/ha): 9.0 | MOOVA herbicidal rating ([4]; 0.2500 kg/ha): 9.0 | SAGPY herbicidal rating ([5]; 0.0320 kg/ha): 7.0 | SAGPY herbicidal rating ([5]; 0.0620 kg/ha): 9.0 | SAGPY herbicidal rating ([5]; 0.1250 kg/ha): 9.0 | SAGPY herbicidal rating ([5]; 0.2500 kg/ha): 9.0 | ORYSAT herbicidal rating (rice tolerance) ([6]; 0.0320 kg/ha): 3.0 | ORYSAT herbicidal rating (rice tolerance) ([6]; 0.0620 kg/ha): 5.0 | ORYSAT herbicidal rating (rice tolerance) ([6]; 0.1250 kg/ha): 7.0 | ORYSAT herbicidal rating (rice tolerance) ([6]; 0.2500 kg/ha): 5.0

C=CCOC(=O)COc1ccc(C)cc1-c1nsc2ccc(-n3c(=O)cc(C(F)(F)F)n(C)c3=O)cc12 [Example 69, Allyl {{2-{5-[3,6-dihydro-3-methyl-2,6-dioxo-4-(trifluoromethyl)-1(2H)-pyrimidinyl]-1,2-benzisothiazol-3-yl}-p-tolyl}oxy}acetate]
herbicidal effect rating, ECHORC ([1]; 0.0313 kg/ha): 9.0 | herbicidal effect rating, ECHORC ([1]; 0.0625 kg/ha): 9.0 | herbicidal effect rating, ECHORC ([1]; 0.1250 kg/ha): 9.0 | herbicidal effect rating, ECHORC ([1]; 0.2500 kg/ha): 9.0 | herbicidal effect rating, CYPIR ([2]; 0.0313 kg/ha): 0.0 | herbicidal effect rating, CYPIR ([2]; 0.0625 kg/ha): 2.0 | herbicidal effect rating, CYPIR ([2]; 0.1250 kg/ha): 4.0 | herbicidal effect rating, CYPIR ([2]; 0.2500 kg/ha): 7.0 | herbicidal effect rating, CYPSE ([3]; 0.0313 kg/ha): 0.0 | herbicidal effect rating, CYPSE ([3]; 0.0625 kg/ha): 0.0 | herbicidal effect rating, CYPSE ([3]; 0.1250 kg/ha): 2.0 | herbicidal effect rating, CYPSE ([3]; 0.2500 kg/ha): 9.0 | herbicidal effect rating, MOOVA ([4]; 0.0313 kg/ha): 9.0 | herbicidal effect rating, MOOVA ([4]; 0.0625 kg/ha): 9.0 | herbicidal effect rating, MOOVA ([4]; 0.1250 kg/ha): 9.0 | herbicidal effect rating, MOOVA ([4]; 0.2500 kg/ha): 9.0 | herbicidal effect rating, SAGPY ([5]; 0.0313 kg/ha): 0.0 | herbicidal effect rating, SAGPY ([5]; 0.0625 kg/ha): 0.0 | herbicidal effect rating, SAGPY ([5]; 0.1250 kg/ha): 2.0 | herbicidal effect rating, SAGPY ([5]; 0.2500 kg/ha): 9.0 | herbicidal effect rating, ORYSAT (rice tolerance) ([6]; 0.0313 kg/ha): 3.5 | herbicidal effect rating, ORYSAT (rice tolerance) ([6]; 0.0625 kg/ha): 5.0 | herbicidal effect rating, ORYSAT (rice tolerance) ([6]; 0.1250 kg/ha): 6.5 | herbicidal effect rating, ORYSAT (rice tolerance) ([6]; 0.2500 kg/ha): 8.0
